Source: ChEMBL document CHEMBL1126537, “Synthesis and biological activity of sulfoximine-modified myristic acid analogues” (Bioorg Med Chem Lett, 1993)

Tests used:
Mus musculus = organism: Mus musculus; experiment: Percentage control against LPS stimulated IL-1-alpha formation in murine peritoneal macrophages was measured by IL-1-alpha ELISA; type: functional; set-up: concentration or dose not given beside the values
[1] = tested on: Moloney murine leukemia virus; experiment: Compound was tested for its antagonistic activity against Moloney leukemia virus (MoLV) replication; type: functional, organism-based

SMILES	IC50 [1] [µM]	Control (Mus musculus) [%]
CCCCCCCCCCCCC[S+](C)(=N)[O-] (stereo not given)	5	123
CCCCCCCCCCCCC[S+](=N)([O-])Cc1ccccc1 (stereo not given)	15	326
C/C=C/C/C=C/CCC(=O)[C@H]1O[C@H]1C(N)=O [CERULENIN]	2.7	170

More lines, main results first:

IC50 [1] [µM]	SMILES	Control (Mus musculus) [%]
24	CCCCCCCCCCCCC[S+](=N)([O-])CC(=O)OCC (stereo not given)	190
10	CCCCCCCCCCCCC[S+](=N)([O-])CCC (stereo not given)	206
